Results from patent US20220016111A1, “Methods of Treating Inflammation” (The Walter and Eliza Hall Institute of Medical Research, priority 2018, published 2022).
Entries after “also recorded” stand apart in the source; their conditions may differ.

What was measured:
[1] = in vivo, cited from earlier work
[2] = in-vivo; cited from earlier work
EZH1 [3] = target: T1, EZH1 (Homo sapiens, UniProt Q92800); details: cited from earlier work
[4] = tested on: 30 other histone or DNA methyltransferases; details: cited from earlier work
H3K27 methylation = details: cited from earlier work
[5] = tested on: diffused large B-cell lymphomas cells carrying the Y641 mutations; details: cited from earlier work
[6] = tested on: wild type and mutant forms of EZH2; details: cited from earlier work
[7] = tested on: activated C57BL/6 mouse CD4+ T cells; assay: Survival/expansion of activated CD4+ T cells in vitro; type: cell-based; details: anti-CD3 and anti-CD28 activation, three days
Source text: (§1) Mean and SEM is shown. […] Scale bar represents 100 μm. e) Quantification of histological analysis showing the frequency of PAS^+ cells and the Inflammation Score. Mean and SEM are shown for n=8 per group. […] Mean and SEM are shown for n=5 (Vehicle), n=4 (each GSK dose).
Nave CD4^+ T cells were isolated from a single-cell suspension from mouse spleen by MACS isolation kit (Miltenyi Biotech). Cells were labelled with CellTrace™ Violet (CTV, Thermo Fisher) then activated in 96 well plates pre-coated with anti-CD3 (10 μg/mL) and anti-CD28 (5 μg/mL) in RPMI-1640 medium supplemented with 10% heat-inactivated fetal bovine serum, 2 mM GlutaMAX™ and 0.05 mM β-mercaptoethanol.

[8] = tested on: OVA-induced allergic inflammation; type: in vivo, C57BL/6 mice
Experimental: as §1
Mean and SEM as well as individual data points are shown. n=4 each group. Data was statistically tested by 1-way ANOVA with Dunnet's post-hoc test.
(§2) Mice were immunized with an intraperitoneal injection of 200 μL Alum/OVA containing 20 μg low-endotoxin ovalbumin (Worthington) and 2.25 mg aluminium hydroxide (Sigma) in sterile PBS on day 0 and day 7. Mice were then rested for a minimum of 2 weeks and then challenged daily for 4 days with nebulized 2% (w/v) ovalbumin (Sigma) in PBS for 15 min. The day after the final challenge (or at a time-point described in the text), mice were sacrificed and bronchoalveolar lavage (250 μL×2 with sterile PBS) was performed from which cellular infiltrate was analysed by flow cytometry and acellular BAL fluid was analysed by Bio-Plex Pro™ cytokine assay (Biorad). Lung tissue was then fixed by inserting 1 mL of 10% formalin via the trachea into the lungs leaving to set in situ for at least 30 min. The mid-section of the left lobe was then excised and placed in liquid formalin for a further 24 h prior to paraffin embedding, sectioning and staining with Periodic acid-Schiff (PAS) and Haematoxylin and Eosin (H&E) stains. Stained slides were imaged using an Aperio Digital Pathology Slide Scanner and quantitated by counting PAS positive epithelial cells and scoring leukocyte infiltration in H&E stained sections according to the scoring chart (FIG. 16). Scores from at least five 20× magnification fields of each stain were averaged for each mouse.
Lung function was assessed by the forced oscillation technique using a FlexiVent system with FX1 module (Scireq, Montreal, Canada). Mice were anaesthetized with ketamine (150 mg/kg) and xylazine (15 mg/kg) then cannulated by tracheostomy with ligation. Baseline respiratory mechanics were recorded, followed by aerosolized saline then increasing doses of methacholine (MCh) (0.1-30 mg/mL). Respiratory impedance (Zrs) was measured and partitioned into airway and parenchymal components through fitting to the Constant Phase Model from which Newtonian resistance (Rn; equivalent to airway resistance) was calculated.
Total IgE and OVA-specific IgE were measured by enzyme-linked immunosorbent assay (ELISA). Briefly, 96 well plates were coated with either Rat anti-mouse IgE (to measure total IgE; Southern Biotech clone #23G2, cat #1130-01) or OVA protein (for OVA-specific IgE) in PBS overnight. Samples were diluted (total IgE 1:50-1:200 and OVA-specific IgE 1:50-1:100 based on pilot assays), and incubated in duplicate, prior to incubation with GAM Fc-specific polyclonal anti-IgE-HRP and colorimetric detection using TMB substrate (Thermo Scientific #34028), measuring absorbance at 450 nm. Absorbance values were converted to total IgE levels by reference to a mouse IgE anti-DNP (clone SPE-7) standard curve (0.1 ng/mL-1 μg/mL) which was included on the same plate. OVA-specific IgE absorbance was expressed relative to a reference OVA-immunized WT mouse which was selected prior to measurement. All ELISAs were performed blinded to treatment and genotype.

[9] = tested on: established allergic inflammation; assay: Established OVA inflammation, single dose of GSK126; type: in vivo, C57BL/6 mice; details: single dose 150 mg/kg oral gavage on day 5, assessed 3 days later
Experimental: CD4+ and CD8+ T cells were first gated by CD11b−GR1−TCRβ+. Neutrophils were gated by CD11bHiGR1Hi. Eosinophils were gated by CD11b+CD11c−SiglecF+. Mean and SEM are shown. n=2 Alum-sensitized vehicle treated controls shown for comparative purposes. OVA-sensitized groups were statistically compared by Student's t test.
as §2, with “The mid-section of the left lobe was then excised and placed in liquid formalin for a further 24 h prior to paraffin embedding, sectioning and staining with Periodic acid-Schiff (PAS) and Haematoxylin and Eosin (H&E) stains.” left out, “Scores from at least five 20× magnification fields of each stain were averaged for each mouse.” left out

[10] = tested on: established allergic inflammation; assay: Established OVA inflammation, three doses of GSK126; type: in vivo, C57BL/6 mice
Experimental: Data shown representative of n=5 OVA/Vehicle (Veh) and OVA/GSK groups, n=2 unchallenged controls (Con) shown for reference purposes. c) Quantification of b. Mean and SEM shown. Group sizes as in b. […] Scale bar represents 100 μm. f) Quantification of PAS^+ cells and Inflammation Score. Mean and SEM shown. Group sizes as in b. Statistical analysis by 1-way ANOVA with Holm-Sidak post-hoc.
as §2
The therapeutic regime was then extended to three doses (day 5, 8 and 10) after establishing inflammation by OVA challenge on days 1-4, and airway inflammation assessed on day 11 (FIG. 15a).

EZH1 [11] = target: T1, EZH1; details: cited from earlier work; remark: listed apart in the source
[12] = tested on: 20 other methyltransferases; details: cited from earlier work
tumours = details: mouse models; cited from earlier work
MLL-rearranged leukemia = details: in-vitro and in vivo; cited from earlier work
[13] = 75 mg/kg, compared with vehicle
[14] = 150 mg/kg oral gavage, each day of OVA challenge
[15] = after OVA challenge and GSK126 administration
[16] = 150 mg/kg on day 5, 8 and 10, assessed day 11

T1 sequence (Q92800 whole entry, species assumed): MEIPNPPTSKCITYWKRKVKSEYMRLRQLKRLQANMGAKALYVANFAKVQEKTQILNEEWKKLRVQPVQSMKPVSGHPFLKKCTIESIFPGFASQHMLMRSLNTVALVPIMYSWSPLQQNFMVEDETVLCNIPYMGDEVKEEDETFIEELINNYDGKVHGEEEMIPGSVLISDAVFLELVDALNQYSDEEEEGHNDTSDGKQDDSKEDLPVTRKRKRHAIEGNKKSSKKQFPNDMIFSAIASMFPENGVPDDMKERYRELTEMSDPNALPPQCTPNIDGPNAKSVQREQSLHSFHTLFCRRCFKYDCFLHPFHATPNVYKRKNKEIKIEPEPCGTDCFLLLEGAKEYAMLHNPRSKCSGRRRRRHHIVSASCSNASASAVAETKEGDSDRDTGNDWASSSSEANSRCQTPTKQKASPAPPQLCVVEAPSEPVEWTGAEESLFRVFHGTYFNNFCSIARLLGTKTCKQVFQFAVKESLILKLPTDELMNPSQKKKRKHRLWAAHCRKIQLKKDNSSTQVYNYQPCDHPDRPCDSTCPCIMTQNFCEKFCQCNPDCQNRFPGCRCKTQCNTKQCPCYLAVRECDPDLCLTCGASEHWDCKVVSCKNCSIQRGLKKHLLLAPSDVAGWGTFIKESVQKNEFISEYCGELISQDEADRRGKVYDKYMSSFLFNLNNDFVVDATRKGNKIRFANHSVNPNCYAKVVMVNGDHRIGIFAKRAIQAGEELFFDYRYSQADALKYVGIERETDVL
T1 sequence (O75530 whole entry partner, species assumed): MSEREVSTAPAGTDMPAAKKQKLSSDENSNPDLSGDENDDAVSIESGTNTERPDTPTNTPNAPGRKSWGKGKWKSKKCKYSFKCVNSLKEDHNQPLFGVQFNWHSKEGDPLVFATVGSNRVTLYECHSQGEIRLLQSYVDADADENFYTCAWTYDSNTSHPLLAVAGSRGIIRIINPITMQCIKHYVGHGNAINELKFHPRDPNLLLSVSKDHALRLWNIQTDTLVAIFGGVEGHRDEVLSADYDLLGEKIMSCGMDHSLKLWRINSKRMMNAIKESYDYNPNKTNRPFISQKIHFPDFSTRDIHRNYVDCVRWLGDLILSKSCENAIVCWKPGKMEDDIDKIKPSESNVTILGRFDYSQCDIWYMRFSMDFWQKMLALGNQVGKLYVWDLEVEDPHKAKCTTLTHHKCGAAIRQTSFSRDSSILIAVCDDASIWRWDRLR
T1 sequence (Q15022 whole entry partner, species assumed): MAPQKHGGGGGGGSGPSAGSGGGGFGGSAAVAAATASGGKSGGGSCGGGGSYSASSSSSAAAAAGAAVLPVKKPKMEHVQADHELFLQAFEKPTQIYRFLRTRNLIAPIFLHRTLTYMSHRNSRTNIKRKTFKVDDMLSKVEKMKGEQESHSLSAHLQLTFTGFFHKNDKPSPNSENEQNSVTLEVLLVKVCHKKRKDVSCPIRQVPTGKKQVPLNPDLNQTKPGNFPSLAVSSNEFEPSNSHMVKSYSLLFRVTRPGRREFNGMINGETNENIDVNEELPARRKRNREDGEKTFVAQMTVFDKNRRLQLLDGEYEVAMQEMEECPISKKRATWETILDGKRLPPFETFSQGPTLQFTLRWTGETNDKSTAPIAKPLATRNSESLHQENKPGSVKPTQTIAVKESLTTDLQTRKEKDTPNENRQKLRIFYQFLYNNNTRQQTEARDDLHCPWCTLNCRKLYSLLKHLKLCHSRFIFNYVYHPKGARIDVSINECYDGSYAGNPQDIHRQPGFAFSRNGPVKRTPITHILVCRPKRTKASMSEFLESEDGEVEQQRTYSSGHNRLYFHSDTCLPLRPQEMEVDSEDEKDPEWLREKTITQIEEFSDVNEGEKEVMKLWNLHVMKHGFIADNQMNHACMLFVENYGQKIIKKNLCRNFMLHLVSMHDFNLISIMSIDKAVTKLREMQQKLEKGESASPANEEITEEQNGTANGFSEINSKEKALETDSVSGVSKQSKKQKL
T1 sequence (Q09028 whole entry partner, species assumed): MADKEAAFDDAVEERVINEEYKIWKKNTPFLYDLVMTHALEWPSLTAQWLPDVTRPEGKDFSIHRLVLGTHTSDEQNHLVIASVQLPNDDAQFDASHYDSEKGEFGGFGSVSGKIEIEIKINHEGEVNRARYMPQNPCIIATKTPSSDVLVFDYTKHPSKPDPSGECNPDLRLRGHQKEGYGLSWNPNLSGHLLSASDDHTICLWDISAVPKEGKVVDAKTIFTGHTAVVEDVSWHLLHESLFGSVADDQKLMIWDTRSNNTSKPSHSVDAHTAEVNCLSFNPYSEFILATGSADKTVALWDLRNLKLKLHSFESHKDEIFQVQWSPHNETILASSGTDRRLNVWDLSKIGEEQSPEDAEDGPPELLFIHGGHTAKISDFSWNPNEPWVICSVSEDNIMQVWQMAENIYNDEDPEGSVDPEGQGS

In the case of `CCS(=O)(=O)N1CCC([C@@H](C)n2c(C)c(C(=O)NCc3c(OC)cc(C)[nH]c3=O)c3ccccc32)CC1` [CPI-169], the oral bioavailability [1] is listed as “limited oral bioavailability” and the “antitumor activity and PD target engagement” value [2] is listed as “demonstrated antitumor activity and PD target engagement”.
In the case of `COc1cc(C)[nH]c(=O)c1CNC(=O)c1c(C)n([C@H](C)C2CCN(CC(F)(F)F)CC2)c2ccccc12` [CPI-1205], the “selectivity for EZH2 over EZH1” value (EZH1 [3]) is given as “modest selectivity”, the “selectivity against 30 other histone or DNA methyltransferases” value [4] is given as “selectivity” and the oral bioavailability [1] is given as “orally bioavailable”.
For `CCC(CC)n1ccc2c(C(=O)NCc3c(C)cc(C)[nH]c3=O)cc(C#N)cc21` [EI1], the “H3K27 methylation and PRC2 target genes in treated cells” value (H3K27 methylation) is listed as “genome-wide loss of H3K27 methylation and activation of PRC2 target genes” and the “effect on lymphoma cells” value [5] is listed as “decreased proliferation, cell cycle arrest, and apoptosis”.
In the case of `Cc1cc(C)c(CNC(=O)c2cc(-c3ccc(CN4CCOCC4)cc3)cc3c2cnn3C2CCCC2)c(=O)[nH]1` [EPZ 005687], the “affinity and selectivity for EZH2” value [6] is listed as “high affinity and selectivity” and the pharmacokinetic properties [1] is listed as “suboptimal”.
With `CC[C@H](C)n1cc(C)c2c(C(=O)NCc3c(C)cc(C)[nH]c3=O)cc(-c3ccc(N4CCNCC4)nc3)cc21` [GSK126] the “number of cells recovered in the culture compared to vehicle control” value [7] was “dose-dependent effect”, the BAL cells [8, 13] was “no effect” and the PAS staining [8, 13] was “no effect”. The lung tissue inflammation [8, 13] was “no effect”, the “PAS+ mucous-producing epithelial cells” value ([8]; 150 mg/kg) was “similarly reduced” and the “levels of inflammation in the lung tissue” value ([8]; 150 mg/kg) was “similarly reduced”. The “BAL T cells” value [8, 14] was “dramatic reduction”, the BAL eosinophils [8, 14] was “dramatic reduction” and the BAL neutrophils [8, 14] was “dramatic reduction”. The “total BAL leukocytes” value [8, 14] was “dramatic reduction”, the OVA-induced airway hyperresponsiveness ([8]; 150 mg/kg, methacholine) was “complete protection” and the “OVA-specific IgE in serum” value [8, 15] was “unchanged”. The “total IgE in serum” value [8, 15] was “unchanged”, the systemic effects ([8]; mouse, in vivo) was “did not observe any systemic effects” and the BAL granulocyte numbers [9] was “did not alter”. The “BAL CD4+ T cell numbers” value ([9]; 150 mg/kg) was “reduced; also recorded: selectively reduces”, the “BAL B cells” value [10, 16] was “significantly reduced” and the “BAL CD4+ T cells” value [10, 16] was “significantly reduced”. For the same compound, the BAL eosinophils [10, 16] was “significantly reduced”, the “PAS+ mucous-producing cells” value [10, 16] was “reduced” and the airway inflammation [10, 16] was “reduced”. For the same compound, the “total BAL cells” value [10, 16] was “significantly reduced”, the “lung inflammation levels (all groups)” value ([10]; 7 days after final OVA challenge) was “statistically indistinguishable” and the “increased potency compared to EZH1” value (EZH1 [11]) was 150 fold. The “increased potency compared to 20 other methyltransferases” value [12] was greater than 1000 fold and the growth of tumours (tumours) was “suppress the growth of tumours”.
For `CCN(c1cc(-c2ccc(CN3CCOCC3)cc2)cc(C(=O)NCc2c(C)cc(C)[nH]c2=O)c1C)C1CCOCC1` [Tazemetostat], the oral bioavailability [1] is given as “orally bioavailable”.
For `CCCc1cc(C)[nH]c(=O)c1CNC(=O)c1cc(-c2ccc(N3CCN(C(C)C)CC3)nc2)cc2c1cnn2C(C)C` [UNC 1999], the “growth of MLL-rearranged leukemia” value (MLL-rearranged leukemia) is given as “inhibit growth”.
